Legend:
Format in all cases: biochemical
[1] = molecular target: JAK2 (Homo sapiens (Human), UniProt O60674); assay: JAK kinase assay (KINASE-GLO luminescent), JAK2 enzyme; settings: JAK2 enzyme 10 nM, Abl peptide substrate
Description: All compounds were initially prepared as 10 mM stocks in anhydrous dimethylsulfoxide (DMSO). A 20 μL aliquot of the 10 mM solutions was transferred to individual wells in column 1 of a 96-well polypropylene microtiter plate (Corning #3363) and diluted with DMSO to give a final compound concentration of 4 mM. Test compounds were then serially diluted 1:5 in DMSO for an 11-point concentration response and further diluted in the assay buffer bringing all compound concentrations to a final range of 100 μM to […] in 2.5% DMSO. The assay was performed in white 96-well, flat-bottom, half-area, non-binding assay plate (Corning #3642) in assay buffer consisting of 20 mM HEPES (pH 7.5), 10 mM MgCl2*6H2O, 100 μM sodium orthovanadate, 0.05% CHAPS and 0.1% bovine serum albumin. A 10 μL aliquot of compound from each well of the intermediate dilution plate and 20 μL of a 2× substrate/enzyme solution containing acceptor substrate (800 nM RSK2 peptide […] (SEQ ID NO: 1)), ROCK2 enzyme (10 nM), or ROCK1 enzyme, and 1,4-Dithiothreitol (DTT, 2 uM) were added to all wells. The reaction was initiated by the addition of 10 μL of 4× stock solution ATP (2 μM). Reactions were thoroughly mixed manually, covered, and allowed to incubate at room temperature for 75 min. Protein kinase activity was quantitated using Promega's KINASE-GLO™ luminescent Kinase Assay Kit according to the manufacturer's directions. ATP concentrations remaining in Test wells following the termination of the enzymatic reaction were compared against control wells containing equivalent amounts of DMSO containing no inhibitor (CTRL). […] Percent of Control (POC) values were determined for each concentration of compound tested according to the equation: […]
IC50 values were calculated using the following 4-parameter logistic curve-fitting algorithm:
Compounds were prepared in the exact same manner as described in the ROCK Kinase Assay with the exception to the substrate and enzyme. […]

[2] = molecular target: TYK2 (Homo sapiens (Human), UniProt P29597); assay: JAK kinase assay (KINASE-GLO luminescent), TYK2 enzyme; settings: TYK2 enzyme 10 nM, Abl peptide substrate
Method in brief: (§1)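 Kinase-Glo luminescence measures ATP remaining after 75 min at room temperature; ATP 2 μM in 4× stock. 11-point 1:5 dilutions, 2.5% DMSO final. Percent of DMSO control per concentration, IC50 by 4-parameter logistic fit.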

[3] = molecular target: JAK1 (Homo sapiens (Human), UniProt P23458); assay: JAK kinase assay (KINASE-GLO luminescent), JAK1 enzyme; settings: JAK1 enzyme 10 nM, Abl peptide substrate
Method in brief: as §1

Chain of JAK2 (O60674 whole entry, species assumed): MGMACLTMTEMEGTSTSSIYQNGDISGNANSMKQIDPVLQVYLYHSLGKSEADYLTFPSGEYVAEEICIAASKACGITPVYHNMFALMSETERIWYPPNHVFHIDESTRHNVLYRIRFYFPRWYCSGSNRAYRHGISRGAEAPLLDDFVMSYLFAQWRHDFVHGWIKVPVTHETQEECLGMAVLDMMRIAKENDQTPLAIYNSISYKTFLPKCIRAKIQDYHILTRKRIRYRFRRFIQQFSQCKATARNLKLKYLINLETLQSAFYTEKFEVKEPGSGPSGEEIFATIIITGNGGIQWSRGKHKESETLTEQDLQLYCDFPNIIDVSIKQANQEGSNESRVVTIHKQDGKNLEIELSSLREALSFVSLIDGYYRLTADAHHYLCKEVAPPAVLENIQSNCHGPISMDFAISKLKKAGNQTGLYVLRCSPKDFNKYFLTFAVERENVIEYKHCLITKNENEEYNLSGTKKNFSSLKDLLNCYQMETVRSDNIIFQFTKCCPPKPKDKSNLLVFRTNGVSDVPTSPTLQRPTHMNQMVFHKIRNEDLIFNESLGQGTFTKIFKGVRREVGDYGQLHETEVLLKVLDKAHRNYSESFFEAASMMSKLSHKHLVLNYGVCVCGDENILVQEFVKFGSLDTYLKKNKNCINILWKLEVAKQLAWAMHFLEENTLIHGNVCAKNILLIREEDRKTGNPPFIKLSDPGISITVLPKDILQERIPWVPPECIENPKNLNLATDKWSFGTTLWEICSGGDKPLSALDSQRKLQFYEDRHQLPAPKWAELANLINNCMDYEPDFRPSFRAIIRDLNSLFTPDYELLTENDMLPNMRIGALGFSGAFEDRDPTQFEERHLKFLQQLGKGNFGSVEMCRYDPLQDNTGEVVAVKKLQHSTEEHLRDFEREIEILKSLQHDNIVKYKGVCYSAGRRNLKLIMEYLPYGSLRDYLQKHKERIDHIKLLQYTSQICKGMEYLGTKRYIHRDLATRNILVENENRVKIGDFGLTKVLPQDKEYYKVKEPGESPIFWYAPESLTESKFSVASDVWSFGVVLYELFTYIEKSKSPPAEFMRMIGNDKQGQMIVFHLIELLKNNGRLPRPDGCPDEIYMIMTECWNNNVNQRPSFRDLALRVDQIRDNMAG
Chain of JAK1 (P23458 whole entry, species assumed): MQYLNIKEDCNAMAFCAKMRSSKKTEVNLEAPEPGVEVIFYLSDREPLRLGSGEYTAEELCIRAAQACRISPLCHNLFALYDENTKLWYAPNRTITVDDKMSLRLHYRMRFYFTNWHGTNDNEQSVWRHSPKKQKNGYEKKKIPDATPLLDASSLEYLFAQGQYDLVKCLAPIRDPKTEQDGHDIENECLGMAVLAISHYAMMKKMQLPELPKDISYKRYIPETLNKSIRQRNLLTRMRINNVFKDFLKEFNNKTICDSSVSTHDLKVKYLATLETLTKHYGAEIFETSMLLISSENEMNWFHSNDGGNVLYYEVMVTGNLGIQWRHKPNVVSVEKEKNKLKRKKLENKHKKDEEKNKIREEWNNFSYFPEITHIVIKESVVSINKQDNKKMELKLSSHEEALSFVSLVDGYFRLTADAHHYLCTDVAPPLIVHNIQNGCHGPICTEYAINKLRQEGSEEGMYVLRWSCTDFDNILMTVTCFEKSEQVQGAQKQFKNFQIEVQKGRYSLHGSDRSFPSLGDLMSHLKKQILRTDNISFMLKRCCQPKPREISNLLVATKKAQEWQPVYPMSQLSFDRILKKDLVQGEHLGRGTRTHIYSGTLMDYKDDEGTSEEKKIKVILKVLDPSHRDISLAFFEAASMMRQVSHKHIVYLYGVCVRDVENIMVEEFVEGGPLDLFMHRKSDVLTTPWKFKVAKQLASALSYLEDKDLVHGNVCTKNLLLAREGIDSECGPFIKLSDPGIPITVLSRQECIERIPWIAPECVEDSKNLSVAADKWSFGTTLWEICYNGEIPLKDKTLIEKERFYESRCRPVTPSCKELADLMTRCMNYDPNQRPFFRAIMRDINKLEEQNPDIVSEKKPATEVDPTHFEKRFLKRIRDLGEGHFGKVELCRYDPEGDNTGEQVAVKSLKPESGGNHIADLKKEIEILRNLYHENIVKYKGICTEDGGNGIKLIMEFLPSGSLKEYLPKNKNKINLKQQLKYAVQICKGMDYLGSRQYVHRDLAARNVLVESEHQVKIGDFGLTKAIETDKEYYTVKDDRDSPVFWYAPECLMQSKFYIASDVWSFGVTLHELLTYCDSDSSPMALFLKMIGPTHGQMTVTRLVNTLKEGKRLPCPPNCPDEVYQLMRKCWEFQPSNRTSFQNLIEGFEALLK
Chain of TYK2 (P29597 whole entry, species assumed): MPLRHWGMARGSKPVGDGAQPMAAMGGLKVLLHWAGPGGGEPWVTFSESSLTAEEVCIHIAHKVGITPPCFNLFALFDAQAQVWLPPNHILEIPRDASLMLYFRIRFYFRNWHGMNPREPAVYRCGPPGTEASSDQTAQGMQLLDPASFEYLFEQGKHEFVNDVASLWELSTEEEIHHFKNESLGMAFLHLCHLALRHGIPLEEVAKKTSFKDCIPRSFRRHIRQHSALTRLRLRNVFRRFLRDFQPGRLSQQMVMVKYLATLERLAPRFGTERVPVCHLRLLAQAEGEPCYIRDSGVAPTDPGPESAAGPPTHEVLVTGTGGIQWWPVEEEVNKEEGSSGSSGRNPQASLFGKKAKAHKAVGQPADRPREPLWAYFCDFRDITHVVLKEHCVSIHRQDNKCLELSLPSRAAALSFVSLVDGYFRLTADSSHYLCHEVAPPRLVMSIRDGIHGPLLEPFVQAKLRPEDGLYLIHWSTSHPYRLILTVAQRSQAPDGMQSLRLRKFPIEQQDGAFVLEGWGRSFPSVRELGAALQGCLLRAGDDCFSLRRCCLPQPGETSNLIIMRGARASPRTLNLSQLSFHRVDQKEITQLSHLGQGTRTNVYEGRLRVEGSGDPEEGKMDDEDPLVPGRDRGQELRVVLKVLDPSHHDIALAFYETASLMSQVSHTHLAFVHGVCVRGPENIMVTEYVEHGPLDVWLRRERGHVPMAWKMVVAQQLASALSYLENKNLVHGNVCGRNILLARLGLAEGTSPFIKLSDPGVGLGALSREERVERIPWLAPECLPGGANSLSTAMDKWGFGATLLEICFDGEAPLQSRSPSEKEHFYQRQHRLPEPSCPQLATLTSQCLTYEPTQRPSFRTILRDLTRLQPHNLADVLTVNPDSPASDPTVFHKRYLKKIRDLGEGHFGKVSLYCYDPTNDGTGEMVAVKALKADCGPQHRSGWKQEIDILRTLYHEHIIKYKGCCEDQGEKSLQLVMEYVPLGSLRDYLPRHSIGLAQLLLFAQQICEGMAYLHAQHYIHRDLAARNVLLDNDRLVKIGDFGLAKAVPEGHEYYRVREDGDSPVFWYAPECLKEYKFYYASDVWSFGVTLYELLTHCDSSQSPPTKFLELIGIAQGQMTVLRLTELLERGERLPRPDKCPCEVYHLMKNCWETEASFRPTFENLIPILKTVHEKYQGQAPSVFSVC

Cc1cc(Nc2ncc(C)c(N3CC(CC#N)(N4CCN(C)[C@H](C)C4)C3)n2)sn1 [E52C]
IC50 [1]: < 20 nM
IC50 [2]: < 10 nM

Cc1cnc(Nc2ccc3c(c2)CN(C)C3)nc1N1CC(CC#N)(N2CCC(CCF)CC2)C1 [E112]
IC50 [1]: < 50 nM
IC50 [3]: < 50 nM

Reference: patent publication US20240425496A1, “AZETIDINYL PYRIMIDINES AND USES THEREOF” (Aerie Pharmaceuticals, Inc., priority 2021, published 2024)
